Measurements: publication PMC7696755 (2020)

Legend:
[1] = system: AT-DNA (DNA, duplex) TATATATATATATATATATATATATATATATATATATATA; experiment: UV/Vis absorption titration (hypochromism); details: 137 mM NaCl, 2.7 mM KCl, PBS (10 mM phosphate), pH 7.4, room temperature, per base pair, intercalation, data not shown
[2] = system: AT-DNA (DNA, duplex) TATATATATATATATATATATATATATATATATATATATA; experiment: UV/Vis absorption titration (302 nm, hypochromism); details: 137 mM NaCl, 2.7 mM KCl, PBS (10 mM phosphate), pH 7.4, room temperature, per base pair, 15 µM 8-MOP, intercalation, before irradiation

Row | SMILES | KD [1] [µM] | KD [2] [µM]
1 | COc1c2ccoc2cc2oc(=O)ccc12 | 180 | –
2 | COc1c2occc2cc2ccc(=O)oc12 | – | 1100
